Key:
[1] = tested on: CCRF-CEM; test: NCI60 one-dose screen (10 μM), Leukemia; format: cell-based; details: Homo sapiens, 10 μM, Leukemia, read-out: Growth percent rate
[2] = tested on: HL-60(TB); test: NCI60 one-dose screen (10 μM), Leukemia; format: cell-based; details: Homo sapiens; 10 μM; HL-60(TB), Leukemia; read-out: Growth percent rate
[3] = tested on: K-562; test: NCI60 one-dose screen (10 μM), Leukemia; format: cell-based; details: Homo sapiens, K562; 10 μM; K-562, Leukemia; read-out: Growth percent rate
[4] = tested on: MOLT-4; test: NCI60 one-dose screen (10 μM), Leukemia; format: cell-based, human; details: Homo sapiens; 10 μM; MOLT-4, Leukemia; read-out: Growth percent rate
[5] = tested on: RPMI-8226; test: NCI60 one-dose screen (10 μM), Leukemia; format: cell-based; details: Homo sapiens; 10 μM; RPMI-8226, Leukemia; read-out: Growth percent rate
[6] = tested on: A549/ATCC; test: NCI60 one-dose screen (10 μM), Non-small Cell Lung Cancer; format: cell-based; details: Homo sapiens; 10 μM; A549/ATCC, Non-small Cell Lung Cancer; read-out: Growth percent rate
[7] = tested on: HOP-62; test: as above; format: cell-based; details: Homo sapiens; 10 μM; HOP-62, Non-small Cell Lung Cancer; read-out: Growth percent rate
[8] = tested on: NCI-H322M; test: as above; format: cell-based; details: Homo sapiens, 10 μM, Non-small Cell Lung Cancer, read-out: Growth percent rate
[9] = tested on: NCI-H460; test: as above; format: cell-based; details: Homo sapiens; 10 μM; NCI-H460, Non-small Cell Lung Cancer; read-out: Growth percent rate
[10] = tested on: NCI-H522; test: as above; format: cell-based; details: Homo sapiens; 10 μM; NCI-H522, Non-small Cell Lung Cancer; read-out: Growth percent rate
[11] = tested on: COLO 205; test: NCI60 one-dose screen (10 μM), Colon Cancer; format: cell-based, human; details: Homo sapiens; 10 μM; COLO 205, Colon Cancer; read-out: Growth percent rate
[12] = tested on: HCT-116; test: NCI60 one-dose screen (10 μM), Colon Cancer; format: cell-based; details: Homo sapiens; 10 μM; HCT-116, Colon Cancer; read-out: Growth percent rate
[13] = tested on: HCT-15; test: NCI60 one-dose screen (10 μM), Colon Cancer; format: cell-based; details: Homo sapiens; 10 μM; HCT-15, Colon Cancer; read-out: Growth percent rate
[14] = tested on: HT29; test: NCI60 one-dose screen (10 μM), Colon Cancer; format: cell-based; details: Homo sapiens, HT-29; 10 μM; HT29, Colon Cancer; read-out: Growth percent rate
[15] = tested on: KM12; test: NCI60 one-dose screen (10 μM), Colon Cancer; format: cell-based, human; details: Homo sapiens; 10 μM; KM12, Colon Cancer; read-out: Growth percent rate
[16] = tested on: SW-620; test: NCI60 one-dose screen (10 μM), Colon Cancer; format: cell-based; details: Homo sapiens; 10 μM; SW-620, Colon Cancer; read-out: Growth percent rate
[17] = tested on: SF-268; test: NCI60 one-dose screen (10 μM), CNS Cancer; format: cell-based; details: Homo sapiens; 10 μM; SF-268, CNS Cancer; read-out: Growth percent rate
[18] = tested on: SF-295; test: NCI60 one-dose screen (10 μM), CNS Cancer; format: cell-based; details: Homo sapiens; 10 μM; SF-295, CNS Cancer; read-out: Growth percent rate
[19] = tested on: SF-539; test: NCI60 one-dose screen (10 μM), CNS Cancer; format: cell-based, human; details: Homo sapiens; 10 μM; SF-539, CNS Cancer; read-out: Growth percent rate
[20] = tested on: SNB-19; test: NCI60 one-dose screen (10 μM), CNS Cancer; format: cell-based; details: Homo sapiens; 10 μM; SNB-19, CNS Cancer; read-out: Growth percent rate
[21] = tested on: SNB-75; test: NCI60 one-dose screen (10 μM), CNS Cancer; format: cell-based, human; details: Homo sapiens; 10 μM; SNB-75, CNS Cancer; read-out: Growth percent rate
[22] = tested on: U251; test: NCI60 one-dose screen (10 μM), CNS Cancer; format: cell-based; details: Homo sapiens, U-251; 10 μM; U251, CNS Cancer; read-out: Growth percent rate
[23] = tested on: LOX IMVI; test: NCI60 one-dose screen (10 μM), Melanoma; format: cell-based, human; details: Homo sapiens; 10 μM; LOX IMVI, Melanoma; read-out: Growth percent rate
[24] = tested on: MALME-3M; test: NCI60 one-dose screen (10 μM), Melanoma; format: cell-based; details: Homo sapiens; 10 μM; MALME-3M, Melanoma; read-out: Growth percent rate
[25] = tested on: M14; test: NCI60 one-dose screen (10 μM), Melanoma; format: cell-based; details: Homo sapiens; 10 μM; M14, Melanoma; read-out: Growth percent rate
[26] = tested on: SK-MEL-2; test: NCI60 one-dose screen (10 μM), Melanoma; format: cell-based; details: Homo sapiens; 10 μM; SK-MEL-2, Melanoma; read-out: Growth percent rate
[27] = tested on: SK-MEL-28; test: NCI60 one-dose screen (10 μM), Melanoma; format: cell-based; details: Homo sapiens; 10 μM; SK-MEL-28, Melanoma; read-out: Growth percent rate
[28] = tested on: SK-MEL-5; test: NCI60 one-dose screen (10 μM), Melanoma; format: cell-based, human; details: Homo sapiens; 10 μM; SK-MEL-5, Melanoma; read-out: Growth percent rate
[29] = tested on: UACC-257; test: NCI60 one-dose screen (10 μM), Melanoma; format: cell-based; details: Homo sapiens; 10 μM; UACC-257, Melanoma; read-out: Growth percent rate
[30] = tested on: IGROV1; test: NCI60 one-dose screen (10 μM), Ovarian Cancer; format: cell-based; details: Homo sapiens, IGROV-1; 10 μM; IGROV1, Ovarian Cancer; read-out: Growth percent rate
[31] = tested on: OVCAR-3; test: NCI60 one-dose screen (10 μM), Ovarian Cancer; format: cell-based; details: Homo sapiens; 10 μM; OVCAR-3, Ovarian Cancer; read-out: Growth percent rate
[32] = tested on: OVCAR-8; test: NCI60 one-dose screen (10 μM), Ovarian Cancer; format: cell-based; details: Homo sapiens; 10 μM; OVCAR-8, Ovarian Cancer; read-out: Growth percent rate
[33] = tested on: 786–0; test: NCI60 one-dose screen (10 μM), Renal Cancer; format: cell-based; details: Homo sapiens; 10 μM; 786-0, Renal Cancer; read-out: Growth percent rate
[34] = tested on: A498; test: NCI60 one-dose screen (10 μM), Renal Cancer; format: cell-based; details: Homo sapiens; 10 μM; A498, Renal Cancer; read-out: Growth percent rate
[35] = tested on: ACHN; test: NCI60 one-dose screen (10 μM), Renal Cancer; format: cell-based; details: Homo sapiens, 10 μM, Renal Cancer, read-out: Growth percent rate
[36] = tested on: RXF 393; test: NCI60 one-dose screen (10 μM), Renal Cancer; format: cell-based, human; details: Homo sapiens; 10 μM; RXF 393, Renal Cancer; read-out: Growth percent rate
[37] = tested on: SN12C; test: NCI60 one-dose screen (10 μM), Renal Cancer; format: cell-based; details: Homo sapiens, 10 μM, Renal Cancer, read-out: Growth percent rate
[38] = tested on: TK-10; test: NCI60 one-dose screen (10 μM), Renal Cancer; format: cell-based; details: Homo sapiens; 10 μM; TK-10, Renal Cancer; read-out: Growth percent rate
[39] = tested on: DU-145; test: NCI60 one-dose screen (10 μM), Prostate Cancer; format: cell-based; details: Homo sapiens; 10 μM; DU-145, Prostate Cancer; read-out: Growth percent rate
[40] = tested on: MCF7; test: NCI60 one-dose screen (10 μM), Breast Cancer; format: cell-based; details: Homo sapiens; 10 μM; MCF7, Breast Cancer; read-out: Growth percent rate
[41] = tested on: HS 578T; test: NCI60 one-dose screen (10 μM), Breast Cancer; format: cell-based; details: Homo sapiens; 10 μM; HS 578T, Breast Cancer; read-out: Growth percent rate
[42] = tested on: 60 human tumor cell lines (NCI60); test: NCI60 one-dose screen (10 μM), whole panel; format: cell-based; details: for activity at 10 µM: mean over 60 human cancer cell lines, read-out: Growth percent rate, Mean

CC[C@]12C=CCN3CC[C@@]4(c5ccc(OC)cc5N(C)[C@H]4[C@@](O)(C(=O)OC)[C@@H]1OC(=O)CCCN1CCN(C(=O)c4ccco4)CC1)[C@@H]32 [Compound 26]
activity at 10 µM [1]: 103%
activity at 10 µM [2]: 93.8%
activity at 10 µM [3]: 76.7%
activity at 10 µM [4]: 77.3%
activity at 10 µM [5]: 69.2%
activity at 10 µM [6]: 92.7%
activity at 10 µM [7]: 107%
activity at 10 µM [8]: 108%
activity at 10 µM [9]: 112%
activity at 10 µM [10]: 91.6%
activity at 10 µM [11]: 99.7%
activity at 10 µM [12]: 104%
activity at 10 µM [13]: 98.8%
activity at 10 µM [14]: 103%
activity at 10 µM [15]: 108%
activity at 10 µM [16]: 112%
activity at 10 µM [17]: 97.3%
activity at 10 µM [18]: 89.5%
activity at 10 µM [19]: 101%
activity at 10 µM [20]: 94.4%
activity at 10 µM [21]: 68.3%
activity at 10 µM [22]: 93.4%
activity at 10 µM [23]: 96.6%
activity at 10 µM [24]: 102%
activity at 10 µM [25]: 101%
activity at 10 µM [26]: 109%
activity at 10 µM [27]: 105%
activity at 10 µM [28]: 75.6%
activity at 10 µM [29]: 101%
activity at 10 µM [30]: 109%
activity at 10 µM [31]: 121%
activity at 10 µM [32]: 104%
activity at 10 µM [33]: 94.2%
activity at 10 µM [34]: 107%
activity at 10 µM [35]: 103%
activity at 10 µM [36]: 102%
activity at 10 µM [37]: 103%
activity at 10 µM [38]: 104%
activity at 10 µM [39]: 105%
activity at 10 µM [40]: 88.7%
activity at 10 µM [41]: 96.1%
activity at 10 µM [42]: 96.8%

CCC12C=CCN3CCC4(c5ccc(OC)cc5N(C)C4C(O)(C(=O)OC)C1OC(=O)CCC(=O)O)C32 (stereo not shown) [Compound 15, 17-(O-3-carboxypropanoyl)vindoline]
activity at 10 µM [1]: 105%
activity at 10 µM [2]: 114%
activity at 10 µM [3]: 90.5%
activity at 10 µM [4]: 106%
activity at 10 µM [5]: 84.2%
activity at 10 µM [6]: 94.3%
activity at 10 µM [7]: 102%
activity at 10 µM [8]: 73.9%
activity at 10 µM [9]: 97.4%
activity at 10 µM [10]: 84.2%
activity at 10 µM [11]: 93.6%
activity at 10 µM [12]: 98.6%
activity at 10 µM [13]: 98.4%
activity at 10 µM [14]: 89.9%
activity at 10 µM [15]: 82.8%
activity at 10 µM [16]: 102%
activity at 10 µM [17]: 87.2%
activity at 10 µM [18]: 113%
activity at 10 µM [19]: 92.9%
activity at 10 µM [20]: 94.9%
activity at 10 µM [21]: 53.4%
activity at 10 µM [22]: 105%
activity at 10 µM [23]: 107%
activity at 10 µM [24]: 90.3%
activity at 10 µM [25]: 96.5%
activity at 10 µM [26]: 100%
activity at 10 µM [27]: 86.7%
activity at 10 µM [28]: 96.8%
activity at 10 µM [29]: 91.5%
activity at 10 µM [30]: 90%
activity at 10 µM [31]: 74.9%
activity at 10 µM [32]: 91.8%
activity at 10 µM [33]: 98.1%
activity at 10 µM [34]: 90.6%
activity at 10 µM [35]: 102%
activity at 10 µM [36]: 96.6%
activity at 10 µM [37]: 92.9%
activity at 10 µM [38]: 90.8%
activity at 10 µM [39]: 98.1%
activity at 10 µM [40]: 68.2%
activity at 10 µM [41]: 69.3%
antiproliferative effect (in words) ([42]; 10 μM one-dose, NCI60): a notable antiproliferative effect was not shown
activity at 10 µM [42]: 91.7%

Reference: PMC11277489, “Novel Piperazine Derivatives of Vindoline as Anticancer Agents” (International Journal of Molecular Sciences, 2024)
